According to ChEMBL document CHEMBL4706749, “Development of Fluorescence Imaging Probes for Labeling COX-1 in Live Ovarian Cancer Cells” (ACS Med Chem Lett, 2021):

What was measured:
[1] = Drug uptake in human OVCAR-3 cells by measuring perinuclear fluorescence staining at 10 uM incubated for 30 mins by Hoechst-33258 staining based confocal laser scanning microscopic analysis; type: ADME, cell-based; details: ovcar-3, 0.5 h
[2] = Drug uptake in human COX1-negative HCA7 cells at 10 uM incubated for 30 mins by Hoechst-33258 staining based confocal laser scanning microscopic analysis; type: ADME, cell-based; details: hca7, 0.5 h

Drug uptake [1]: Active
Drug uptake [2]: Not Active
SMILES: O=C(O)c1ccc(-n2nc(-c3ccco3)cc2-n2cc(CNc3ccc([N+](=O)[O-])c4nonc34)nn2)cc1
